Measurements reported in US20210255193A1, “LYSINE REACTIVE PROBES AND USES THEREOF” (The Scripps Research Institute, priority 2017, published 2021).

Key:
Test in all cases: competitive isoTOP-ABPP
Assay type in all cases: binding
[1] = molecular target: T1, TPD52L2 Tumor protein D54 (Homo sapiens, UniProt O43399); parameters: key to isoTOP-ABPP reactivity ratio at lysine O43399_K90: R = MS1 peak area ratio, DMSO (heavy) / compound-treated (light); conditions: for R value (DMSO/fragment) for probe 1 labeling: O43399_K90; for R value (DMSO/fragment) for probe 1 labeling / isoTOP-ABPP reactivity ratio at lysine O43399_K90: 231 sol
T1 construct: isoTOP-ABPP experiments performed in cell lysates (in vitro); endogenous in cells; host or cells: MDA-MB-231 soluble lysate
Protocol: (§1) In vitro covalent fragment treatment for isoTOP-ABPP. All compounds were made up as solutions in DMSO (100×) and were used at a final concentration of 50 μM for activated esters and 100 μM for guanidinylating agents. For each profiling sample, 0.5 ml of lysate was treated with 5 μl of the 100× compound stock solution or 5 μl of DMSO. Samples were treated with activated esters for
(§2) STP-alkyne labeling and click chemistry. For concentration-dependent reactivity measurements by isoTOP-ABPP, 0.5 ml proteome aliquots were treated at ambient temperature with 1 mM STP-alkyne 1 (5 μl of 100 mM stock in DMSO) and 0.1 mM STP alkyne 1 (5 μl of 10 mM stock in DMSO), respectively. For competitive isoTOP-ABPP, after in vitro fragment treatment (detailed above), the samples were labeled for 1 h at ambient temperature with 0.1 mM STP-alkyne 1 (5 μl of 10 mM stock in DMSO). Samples were conjugated by copper-mediated azide-alkyne cycloaddition (CuAAC) to either the light (1 mM STP-alkyne or fragment treated) or heavy (0.1 mM STP-alkyne or DMSO treated) TEV tags (10 μl of 5 mM stocks in DMSO, final concentration=100 μM) using tris(2-carboxyethyl)phosphine hydrochloride
(§3) R value calculation and processing. The ratios of light and heavy MS1 peaks for each unique peptide were quantified with a CIMAGE software using default parameters (3 MS1 acquisitions per peak and signal to noise threshold set to 2.5). For reactivity measurements by isoTOP-ABPP, the R value was calculated from the ratio of MS1 peak areas, comparing the 1 mM STP alkyne sample (light TEV tag) with the 0.1 mM STP alkyne sample (heavy TEV tag). For competitive isoTOP-ABPP, the R value was calculated from the ratio of MS1 peak areas, comparing the DMSO treated sample (heavy TEV tag) with the compound treated sample (light TEV tag). […] Ratios for unique peptide entries are calculated for each experiment; overlapping peptides with the same modified lysine (for example, different charge states, MudPIT chromatographic steps or tryptic termini) are grouped together and the median ratio is reported as the final ratio (R). The peptide ratios reported by CIMAGE were further filtered to ensure the removal or correction of low-quality ratios in each individual data set. The quality filters applied were the following: removal of half tryptic peptides; for ratios with high standard deviations from the median (90% of the median or above) the lowest ratio was taken instead of the median; removal of peptides with R=20 and only a single MS2 event triggered during the elution of the parent ion; manual annotation of all the peptides with ratios of 20, removing any peptides with low quality elution profiles that remained after the previous curation steps (only done for competitive isoTOP-ABPP).
(§4) Cross-data processing for fragment screening. For compound treated samples, biological replicates of the same condition were averaged, if the standard deviation was below 60% of the mean; otherwise, for lysines with at least one R value <4 for a particular compound, the lowest value of the ratio set was taken. For lysines, where all R values for a particular compound were ≥4, the average was reported. For peptides containing several possible modified lysines, the lysine with the highest number of quantification events was used for analysis and the remaining, redundant peptides were reported as alternative modification sites. Peptides included in the aggregate dataset (those used for further bioinformatics and statistical analyses) were required to have been quantified in 2 experiments for competitive isoTOP-ABPP. Lysines were categorized as liganded, if they had at least one ratio R≥4 (hit fragments). For liganded lysines with R=20 for all liganding events, lysines were required to have been quantified with R=20 in two separate experiments and were further required to have been quantified with R<20 in one additional experiment.

[2] = molecular target: T2, AGFG1 Arf-GAP domain and FG repeat-containing protein 1 (Homo sapiens, UniProt P52594); parameters: key to isoTOP-ABPP reactivity ratio at lysine P52594_K134: R = MS1 peak area ratio, DMSO (heavy) / compound-treated (light); conditions: 50 uM, 231 sol, in vitro; for R value (DMSO/fragment) for probe 1 labeling: P52594_K134
T2 construct: isoTOP-ABPP experiments performed in cell lysates (in vitro); endogenous in cells; host or cells: soluble proteome of human cancer cell lines (MDA-MB-231, Ramos, Jurkat)
T2 sequence (P52594 1-562): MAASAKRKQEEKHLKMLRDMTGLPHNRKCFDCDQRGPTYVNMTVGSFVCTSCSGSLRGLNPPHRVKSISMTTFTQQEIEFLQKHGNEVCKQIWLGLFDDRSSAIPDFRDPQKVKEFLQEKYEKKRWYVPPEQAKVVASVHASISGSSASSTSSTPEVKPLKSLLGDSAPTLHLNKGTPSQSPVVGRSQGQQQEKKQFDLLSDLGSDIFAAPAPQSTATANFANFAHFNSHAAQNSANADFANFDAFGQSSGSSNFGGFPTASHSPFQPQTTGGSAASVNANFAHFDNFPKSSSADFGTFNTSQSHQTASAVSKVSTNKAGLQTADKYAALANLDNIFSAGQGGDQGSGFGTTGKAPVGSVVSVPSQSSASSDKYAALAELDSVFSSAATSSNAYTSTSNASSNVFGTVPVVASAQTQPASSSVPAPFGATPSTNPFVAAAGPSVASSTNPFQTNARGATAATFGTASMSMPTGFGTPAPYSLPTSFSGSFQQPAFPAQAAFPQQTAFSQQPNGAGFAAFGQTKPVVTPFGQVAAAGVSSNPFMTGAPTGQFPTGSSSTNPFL
Protocol: as §1, §2, §3, §4

ADK Adenosine kinase = molecular target: T3, ADK Adenosine kinase (Homo sapiens, UniProt P55263); parameters: key to isoTOP-ABPP reactivity ratio at lysine P55263_K88: R = MS1 peak area ratio, DMSO (heavy) / compound-treated (light); conditions: for R value (DMSO/fragment) for probe 1 labeling: P55263_K88; for R value (DMSO/fragment) for probe 1 labeling / isoTOP-ABPP reactivity ratio at lysine P55263_K88: 231 sol
T3 construct: isoTOP-ABPP experiments performed in cell lysates (in vitro); endogenous in cells; host or cells: soluble proteome of human cancer cell lines (MDA-MB-231, Ramos, Jurkat)
Protocol: as §1, §2, §3, §4

[3] = molecular target: T4, ECH1 Delta(3,5)-Delta(2,4)-dienoyl-CoA isomerase, mitochondrial (Homo sapiens, UniProt Q13011); parameters: key to isoTOP-ABPP reactivity ratio at lysine Q13011_K112: R = MS1 peak area ratio, DMSO (heavy) / compound-treated (light); capped at 20; conditions: for R value (DMSO/fragment) for probe 1 labeling: Q13011_K112; for R value (DMSO/fragment) for probe 1 labeling / isoTOP-ABPP reactivity ratio at lysine Q13011_K112: 231 sol
T4 construct: isoTOP-ABPP experiments performed in cell lysates (in vitro); endogenous in cells; host or cells: soluble proteome of human cancer cell lines (MDA-MB-231, Ramos, Jurkat)
T4 sequence (Q13011 34-328): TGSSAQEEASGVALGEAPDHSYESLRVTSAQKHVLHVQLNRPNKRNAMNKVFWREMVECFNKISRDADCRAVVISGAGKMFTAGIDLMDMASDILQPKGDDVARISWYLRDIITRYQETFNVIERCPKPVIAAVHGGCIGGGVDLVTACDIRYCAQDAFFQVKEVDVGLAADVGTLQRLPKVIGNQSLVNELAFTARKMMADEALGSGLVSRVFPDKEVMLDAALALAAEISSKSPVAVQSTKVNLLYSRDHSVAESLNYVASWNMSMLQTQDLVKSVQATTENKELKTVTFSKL
Protocol: as §1, §2, §3, §4

T1 sequence (O43399 whole entry, the tested form may be a part): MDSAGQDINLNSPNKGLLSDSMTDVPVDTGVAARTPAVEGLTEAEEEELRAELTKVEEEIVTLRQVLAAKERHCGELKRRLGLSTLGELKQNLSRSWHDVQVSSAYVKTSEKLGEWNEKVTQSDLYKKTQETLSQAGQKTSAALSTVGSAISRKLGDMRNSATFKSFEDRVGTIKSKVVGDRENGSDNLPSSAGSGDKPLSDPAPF
T3 sequence (P55263 whole entry, the tested form may be a part): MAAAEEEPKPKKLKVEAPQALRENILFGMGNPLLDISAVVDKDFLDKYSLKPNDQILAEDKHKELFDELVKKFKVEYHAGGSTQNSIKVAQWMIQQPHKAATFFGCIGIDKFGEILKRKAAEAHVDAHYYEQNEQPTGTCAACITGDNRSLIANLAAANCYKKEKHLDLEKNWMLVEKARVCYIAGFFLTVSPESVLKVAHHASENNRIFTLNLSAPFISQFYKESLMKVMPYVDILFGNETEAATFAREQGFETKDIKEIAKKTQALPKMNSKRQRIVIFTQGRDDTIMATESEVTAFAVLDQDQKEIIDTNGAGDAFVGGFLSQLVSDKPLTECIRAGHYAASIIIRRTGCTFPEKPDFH

O=C(CCc1cn(-c2ccccc2)nc1-c1ccccc1)Oc1c(F)c(F)c(F)c(F)c1F [fragment 19, Pentafluorophenyl 3-(1,3-diphenyl-1H-pyrazol-4-yl)propanoate]
R value (DMSO/fragment) for probe 1 labeling ([1]; 50 uM, in vitro): 2.6
R value (DMSO/fragment) for probe 1 labeling [2]: 1.0
R value (DMSO/fragment) for probe 1 labeling (ADK Adenosine kinase; 50 uM, in vitro): 0.8
R value (DMSO/fragment) for probe 1 labeling ([3]; 50 uM, in vitro): 4.7

O=C(Oc1c(F)c(F)c(F)c(F)c1F)C(c1ccccc1)c1ccccc1 [fragment 20, Pentafluorophenyl 2,2-diphenylacetate]
R value (DMSO/fragment) for probe 1 labeling ([1]; 50 uM, in vitro): 1.5
R value (DMSO/fragment) for probe 1 labeling [2]: 1.0
R value (DMSO/fragment) for probe 1 labeling (ADK Adenosine kinase; 50 uM, in vitro): 0.8
R value (DMSO/fragment) for probe 1 labeling ([3]; 50 uM, in vitro): 1.4

O=C(Oc1c(F)c(F)c(F)c(F)c1F)c1cc(C(F)(F)F)cc(C(F)(F)F)c1 [fragment 21, Pentafluorophenyl 3,5-bis(trifluoromethyl)benzoate]
R value (DMSO/fragment) for probe 1 labeling ([1]; 50 uM, in vitro): 2.0
R value (DMSO/fragment) for probe 1 labeling (ADK Adenosine kinase; 50 uM, in vitro): 0.8
R value (DMSO/fragment) for probe 1 labeling ([3]; 50 uM, in vitro): 1.5

Cn1cc(CC(=O)Oc2c(F)c(F)c(F)c(F)c2F)c2ccccc21 [fragment 22, Pentafluorophenyl 2-(1-methyl-1H-indol-3-yl)acetate]
R value (DMSO/fragment) for probe 1 labeling ([1]; 50 uM, in vitro): 3.6
R value (DMSO/fragment) for probe 1 labeling [2]: 1.4
R value (DMSO/fragment) for probe 1 labeling (ADK Adenosine kinase; 50 uM, in vitro): 1.0
R value (DMSO/fragment) for probe 1 labeling ([3]; 50 uM, in vitro): 1.5

COc1cc(CCC(=O)Oc2c(F)c(F)c(F)c(F)c2F)cc(OC)c1OC [fragment 23, Pentafluorophenyl 3-(3,4,5-trimethoxyphenyl)propanoate]
R value (DMSO/fragment) for probe 1 labeling ([1]; 50 uM, in vitro): 1.5
R value (DMSO/fragment) for probe 1 labeling [2]: 1.7
R value (DMSO/fragment) for probe 1 labeling (ADK Adenosine kinase; 50 uM, in vitro): 0.7
R value (DMSO/fragment) for probe 1 labeling ([3]; 50 uM, in vitro): 4.7

O=C(Oc1c(F)c(F)c(F)c(F)c1F)C1CCN(C(=O)OCc2ccccc2)CC1 [fragment 24, 1-Benzyl 4-(pentafluorophenyl) piperidine-1,4-dicarboxylate]
isoTOP-ABPP reactivity ratio at lysine O43399_K90 ([1]; 50 uM, in vitro): 1.9
isoTOP-ABPP reactivity ratio at lysine P52594_K134 [2]: 1.5
isoTOP-ABPP reactivity ratio at lysine P55263_K88 (ADK Adenosine kinase; 50 uM, in vitro): 1.0

O=C(Oc1c(F)c(F)c(F)c(F)c1F)c1ccc2ccccc2n1 [fragment 25, Pentafluorophenyl quinoline-2-carboxylate]
isoTOP-ABPP reactivity ratio at lysine O43399_K90 ([1]; 50 uM, in vitro): 1.5
isoTOP-ABPP reactivity ratio at lysine P52594_K134 [2]: 1.1
isoTOP-ABPP reactivity ratio at lysine P55263_K88 (ADK Adenosine kinase; 50 uM, in vitro): 0.8
isoTOP-ABPP reactivity ratio at lysine Q13011_K112 ([3]; 50 uM, in vitro): 2.7

O=C(CCc1coc2cc(F)ccc2c1=O)Oc1c(F)c(F)c(F)c(F)c1F [fragment 26, Pentafluorophenyl 3-(7-fluoro-4-oxo-4H-chromen-3-yl)propanoate]
isoTOP-ABPP reactivity ratio at lysine O43399_K90 ([1]; 50 uM, in vitro): 1.3
isoTOP-ABPP reactivity ratio at lysine P52594_K134 [2]: 2.2
isoTOP-ABPP reactivity ratio at lysine P55263_K88 (ADK Adenosine kinase; 50 uM, in vitro): 0.9

O=C(CN1C(=O)c2ccccc2C1=O)Oc1c(F)c(F)c(F)c(F)c1F [fragment 27, Pentafluorophenyl 2-(1,3-dioxoisoindolin-2-yl)acetate]
isoTOP-ABPP reactivity ratio at lysine O43399_K90 ([1]; 50 uM, in vitro): 1.4
isoTOP-ABPP reactivity ratio at lysine P52594_K134 [2]: 1.5
isoTOP-ABPP reactivity ratio at lysine P55263_K88 (ADK Adenosine kinase; 50 uM, in vitro): 0.8
isoTOP-ABPP reactivity ratio at lysine Q13011_K112 ([3]; 50 uM, in vitro): 2.7

CCn1cc(C(=O)Oc2c(F)c(F)c(F)c(F)c2F)c(=O)c2ccc(C)nc21 [fragment 28, Pentafluorophenyl 1-ethyl-7-methyl-4-oxo-1,4-dihydro-1,8-naphthyridine-3-carboxylate]
isoTOP-ABPP reactivity ratio at lysine O43399_K90 ([1]; 50 uM, in vitro): 1.1
isoTOP-ABPP reactivity ratio at lysine P52594_K134 [2]: 1.0
isoTOP-ABPP reactivity ratio at lysine P55263_K88 (ADK Adenosine kinase; 50 uM, in vitro): 0.8
isoTOP-ABPP reactivity ratio at lysine Q13011_K112 ([3]; 50 uM, in vitro): 1.8

O=C(CCc1cn(-c2ccccc2)nc1-c1ccccc1)Oc1ccc([N+](=O)[O-])cc1[N+](=O)[O-] [fragment 29, 2,4-Dinitrophenyl 3-(1,3-diphenyl-1H-pyrazol-4-yl)propanoate]
isoTOP-ABPP reactivity ratio at lysine O43399_K90 ([1]; 50 uM, in vitro): 3.1
isoTOP-ABPP reactivity ratio at lysine P52594_K134 [2]: 1.4
isoTOP-ABPP reactivity ratio at lysine P55263_K88 (ADK Adenosine kinase; 50 uM, in vitro): 1.0
isoTOP-ABPP reactivity ratio at lysine Q13011_K112 ([3]; 50 uM, in vitro): 1.0

O=C(Oc1ccc([N+](=O)[O-])cc1[N+](=O)[O-])c1ccc2ccccc2n1 [fragment 35, 2,4-Dinitrophenyl quinoline-2-carboxylate]
isoTOP-ABPP ratio (R) at liganded lysine O43399_K90 ([1]; 50 uM, in vitro, sol, 231): 1.3
isoTOP-ABPP ratio (R) at liganded lysine P55263_K88 (ADK Adenosine kinase; 50 uM, in vitro, sol, 231): 0.6
isoTOP-ABPP ratio (R) at liganded lysine Q13011_K112 ([3]; 50 uM, in vitro, sol, 231): 1.0

O=C(Oc1c(F)c(F)c(C(F)(F)F)c(F)c1F)c1cc(C(F)(F)F)cc(C(F)(F)F)c1 [fragment 47, 2,3,5,6-Tetrafluoro-4-(trifluoromethyl)phenyl 3,5-bis(trifluoromethyl)benzoate]
isoTOP-ABPP ratio, lysine O43399_K90 ([1]; 50 uM_231_sol_in vitro): 2.0
isoTOP-ABPP ratio, lysine P55263_K88 (ADK Adenosine kinase; 50 uM_231_sol_in vitro): 0.8
isoTOP-ABPP ratio, lysine Q13011_K112 ([3]; 50 uM_231_sol_in vitro): 1.0
